Legend:
blackgrass = test: Test B pre/postemergence blackgrass; type: in vivo, Alopecurus myosuroides
Outline: (§1)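 Herbicidal effect was estimated by eye on a ten-point control scale after plants spent twelve to sixteen days in a greenhouse following soil or foliar treatment. Foliar sprays targeted plants at one to four leaves; all doses were formulated in a non-phytotoxic solvent with surfactant.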

sugar beet = test: Test B pre/postemergence sugar beet; type: in vivo, Beta vulgaris
Outline: as §1

pigweed = test: Test B pre/postemergence pigweed; type: in vivo, Amaranthus retroflexus
Outline: as §1

corn = test: Test B pre/postemergence corn; type: in vivo, Zea mays
Outline: as §1

bamyardgrass = test: Test B flood test barnyardgrass; type: in vivo, Echinochloa crus-galli
Outline: (§2)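 Plants were grown to the 2-leaf stage before treatment with test chemical, then held in a greenhouse for twelve to sixteen days. Injury was visually rated against untreated controls on a 0–10 scale, where 0 is no effect and 10 is complete control.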

velvetleaf = test: Test B pre/postemergence velvetleaf; type: in vivo, Abutilon theophrasti
Outline: as §1

duck salad = test: Test B flood test duck salad; type: in vivo, Heteranthera limosa
Outline: as §2

soybean = test: Test B pre/postemergence soybean; type: in vivo, Glycine max
Outline: as §1

smallflower flatsedge = test: Test B flood test smallflower flatsedge; type: in vivo, Cyperus difformis
Outline: as §2

cocklebur = test: Test B pre/postemergence cocklebur; type: in vivo, Xanthium strumarium
Outline: as §1

surinam grass = test: Test B pre/postemergence surinam grass; type: in vivo, Brachiaria decumbens
Outline: as §1

rice = test: Test B flood test rice; type: in vivo, Oryza sativa
Outline: as §2

morningglory = test: Test B pre/postemergence morningglory; type: in vivo, Ipomoea hederacea
Outline: as §1

purple nutsedge = test: Test B pre/postemergence purple nutsedge; type: in vivo, Cyperus rotundus
Outline: as §1

giant foxtail = test: Test B pre/postemergence giant foxtail; type: in vivo, Setaria faberii
Outline: as §1

wild oat = test: Test B pre/postemergence wild oat; type: in vivo, Avena fatua
Outline: as §1

rape = test: Test B pre/postemergence rape; type: in vivo, Brassica napus
Outline: as §1

wheat = test: Test B pre/postemergence wheat; type: in vivo, Triticum aestivum
Outline: as §1

bedstraw = test: Test B pre/postemergence bedstraw; type: in vivo, Galium aparine
Outline: as §1

crabgrass = test: Test B pre/postemergence crabgrass; type: in vivo, Digitaria sanguinalis
Outline: as §1

[1] = Postemergence, Rate 62 g/ha, scale of 0 to 10, 0 is no effect, 10 is complete control
[2] = Postemergence, Rate 125 g/ha, scale of 0 to 10 where 0 is no effect and 10 is complete control
[3] = Postemergence, Rate 250 g/ha, scale of 0 to 10, 0 is no effect, 10 is complete control
[4] = Postemergence, Rate 500 g/ha, scale of 0 to 10 where 0 is no effect and 10 is complete control
[5] = Preemergence, Rate 62 g/ha, scale 0 to 10 (0 no effect, 10 complete control)
[6] = Preemergence, Rate 125 g/ha, scale of 0 to 10 where 0 is no effect and 10 is complete control
[7] = Preemergence, Rate 500 g/ha, scale of 0 to 10 where 0 is no effect and 10 is complete control
[8] = Rate 62 g/ha, flood test species, Pre-emergence, visual evaluation after twelve to sixteen days
[9] = Rate 125 g/ha, under heading Pre-emergence, flood test species, visual evaluation after twelve to sixteen days
[10] = Rate 250 g/ha, Pre-emergence (flood test species), scale 0 to 10, 0 is no effect, 10 is complete control
[11] = Rate 500 g/ha, Pre-emergence section of Table B, 0 to 10 scale (0 no effect, 10 complete control)

## CC(C)N(C(=O)n1oc(=O)n(CC(=O)N(C)C)c1=O)c1ccccc1 [Compound 588]
blackgrass; [1]
  Blackgrass plant response rating: 0
blackgrass; [2]
  Plant response rating, Blackgrass: 0
blackgrass; [3]
  Blackgrass plant response rating: 6
blackgrass; [4]
  Plant response rating, Blackgrass: 8
blackgrass; [5]
  Blackgrass plant response rating: 0
blackgrass; [6]
  Blackgrass plant response rating: 3
blackgrass; Preemergence, Rate 250 g/ha
  Blackgrass plant response rating (0 to 10 scale): 5
blackgrass; [7]
  Blackgrass plant response rating: 8
Sugar beet; [2]
  Plant response rating, Sugarbeets: 0
Sugar beet; [3]
  Sugarbeets plant response rating: 0
Sugar beet; [4]
  Plant response rating, Sugarbeets: 0
Sugar beet; [5]
  Sugarbeets plant response rating: 0
Sugar beet; [6]
  Sugarbeets plant response rating: 0
Sugar beet; [7]
  Sugarbeets plant response rating: 6
pigweed; [2]
  Plant response rating, Redroot pigweed: 0
pigweed; [3]
  Redroot pigweed plant response rating: 0
pigweed; [4]
  Plant response rating, Redroot pigweed: 0
pigweed; [5]
  Redroot pigweed plant response rating: 0
pigweed; [6]
  Redroot pigweed plant response rating: 1
pigweed; [7]
  Redroot pigweed plant response rating: 9
corn; [1]
  Corn plant response rating: 0
corn; [2]
  Plant response rating, Corn: 0
corn; [3]
  Corn plant response rating: 0
corn; [4]
  Plant response rating, Corn: 0
corn; [5]
  Corn plant response rating: 0
corn; [6]
  Corn plant response rating: 0
corn; Preemergence, Rate 250 g/ha
  Corn plant response rating (0 to 10 scale): 0
corn; [7]
  Corn plant response rating: 5
bamyardgrass; [8]
  Plant response rating, Barnyardgrass (0 to 10 scale, 0 is no effect, 10 is complete control): 0
bamyardgrass; [9]
  Barnyardgrass plant response rating (0 to 10 scale, 0 is no effect, 10 is complete control): 0
bamyardgrass; [10]
  Barnyardgrass plant response rating: 0
bamyardgrass; [11]
  Barnyardgrass plant response rating: 0
velvetleaf; [2]
  Plant response rating, Velvetleaf: 0
velvetleaf; [3]
  Velvetleaf plant response rating: 0
velvetleaf; [4]
  Plant response rating, Velvetleaf: 7
velvetleaf; [5]
  Velvetleaf plant response rating: 0
velvetleaf; [6]
  Velvetleaf plant response rating: 0
velvetleaf; [7]
  Velvetleaf plant response rating: 5
Duck salad; [8]
  Plant response rating, Ducksalad (0 to 10 scale, 0 is no effect, 10 is complete control): 0
Duck salad; [9]
  Ducksalad plant response rating (0 to 10 scale, 0 is no effect, 10 is complete control): 0
Duck salad; [10]
  Ducksalad plant response rating: 0
Duck salad; [11]
  Ducksalad plant response rating: 0
soybean; [2]
  Plant response rating, Soybean: 4
soybean; [3]
  Soybean plant response rating: 4
soybean; [4]
  Plant response rating, Soybean: 7
soybean; [5]
  Soybean plant response rating: 0
soybean; [6]
  Soybean plant response rating: 0
soybean; [7]
  Soybean plant response rating: 5
Smallflower flatsedge; [8]
  Plant response rating, S. Flatsedge (0 to 10 scale, 0 is no effect, 10 is complete control): 0
Smallflower flatsedge; [9]
  S. Flatsedge plant response rating (0 to 10 scale, 0 is no effect, 10 is complete control): 0
Smallflower flatsedge; [10]
  S. Flatsedge plant response rating: 0
Smallflower flatsedge; [11]
  S. Flatsedge plant response rating: 0
cocklebur; [1]
  Cocklebur plant response rating: 0
cocklebur; [2]
  Plant response rating, Cocklebur: 0
cocklebur; [3]
  Cocklebur plant response rating: 0
cocklebur; [4]
  Plant response rating, Cocklebur: 0
cocklebur; [5]
  Cocklebur plant response rating: 0
cocklebur; [6]
  Cocklebur plant response rating: 0
cocklebur; Preemergence, Rate 250 g/ha
  Cocklebur plant response rating (0 to 10 scale): 0
cocklebur; [7]
  Cocklebur plant response rating: 0
Surinam grass; [1]
  B. signalgrass plant response rating: 0
Surinam grass; [2]
  Plant response rating, B. signalgrass: 0
Surinam grass; [3]
  B. signalgrass plant response rating: 4
Surinam grass; [4]
  Plant response rating, B. signalgrass: 8
Surinam grass; [5]
  B. signalgrass plant response rating: 0
Surinam grass; [6]
  B. signalgrass plant response rating: 1
Surinam grass; Preemergence, Rate 250 g/ha
  B. signalgrass plant response rating (0 to 10 scale, 0 is no effect, 10 is complete control): 5
Surinam grass; [7]
  B. signalgrass plant response rating: 8
rice; [8]
  Plant response rating, Rice (0 to 10 scale, 0 is no effect, 10 is complete control): 0
rice; [9]
  Rice plant response rating (0 to 10 scale, 0 is no effect, 10 is complete control): 0
rice; [10]
  Rice plant response rating: 0
rice; [11]
  Rice plant response rating: 0
morningglory; [1]
  Morningglory plant response rating: 7
morningglory; [2]
  Plant response rating, Morningglory: 7
morningglory; [3]
  Morningglory plant response rating: 10
morningglory; [4]
  Plant response rating, Morningglory: 10
morningglory; [5]
  Morningglory plant response rating: 0
morningglory; [6]
  Morningglory plant response rating: 0
morningglory; [7]
  Morningglory plant response rating: 0
Purple nutsedge; [1]
  Nutsedge plant response rating: 0
Purple nutsedge; [2]
  Plant response rating, Nutsedge: 0
Purple nutsedge; [4]
  Plant response rating, Nutsedge: 0
Purple nutsedge; [5]
  Nutsedge plant response rating: 0
Purple nutsedge; [6]
  Nutsedge plant response rating: 0
Purple nutsedge; [7]
  Nutsedge plant response rating: 0
Giant foxtail; [1]
  Giant foxtail plant response rating: 0
Giant foxtail; [2]
  Plant response rating, Giant foxtail: 4
Giant foxtail; [3]
  Giant foxtail plant response rating: 8
Giant foxtail; [4]
  Plant response rating, Giant foxtail: 8
Giant foxtail; [5]
  Giant foxtail plant response rating: 7
Giant foxtail; [6]
  Giant foxtail plant response rating: 8
Giant foxtail; [7]
  Giant foxtail plant response rating: 10
Wild oat; [2]
  Plant response rating, Wild oats: 0
Wild oat; [3]
  Wild oats plant response rating: 0
Wild oat; [4]
  Plant response rating, Wild oats: 0
Wild oat; [5]
  Wild oats plant response rating: 0
Wild oat; [6]
  Wild oats plant response rating: 0
Wild oat; [7]
  Wild oats plant response rating: 7
rape; [1]
  Rape plant response rating: 0
rape; [2]
  Plant response rating, Rape: 0
rape; [3]
  Rape plant response rating: 0
rape; [4]
  Plant response rating, Rape: 0
rape; [5]
  Rape plant response rating: 0
rape; [6]
  Rape plant response rating: 0
rape; [7]
  Rape plant response rating: 0
wheat; [2]
  Plant response rating, Wheat: 0
wheat; [3]
  Wheat plant response rating: 0
wheat; [4]
  Plant response rating, Wheat: 3
wheat; [5]
  Wheat plant response rating: 0
wheat; [6]
  Wheat plant response rating: 2
wheat; [7]
  Wheat plant response rating: 8
bedstraw; [1]
  Bedstraw plant response rating: 0
bedstraw; Preemergence, Rate 250 g/ha
  Bedstraw plant response rating (0 to 10 scale): 0
crabgrass; [1]
  Crabgrass plant response rating: 0
crabgrass; [2]
  Plant response rating, Crabgrass: 2
crabgrass; [3]
  Crabgrass plant response rating: 6
crabgrass; [5]
  Crabgrass plant response rating: 3
crabgrass; [6]
  Crabgrass plant response rating: 6
crabgrass; [7]
  Crabgrass plant response rating: 9

Reference: patent publication US6737383B1, “Herbicidal oxadiazolidines” (priority 1999, dated 2004)
